Assay results as given in patent publication US20250099548A1, “PHARMACEUTICAL COMPOSITION FOR PREVENTING OR TREATING DEGENERATIVE BRAIN DISEASES, CONTAINING GLUCAGON-LIKE PEPTIDE-1 AND INTERLEUKIN-1 RECEPTOR ANTAGONIST” (GI INNOVATION, INC., priority 2022, published 2025).

Columns and labels:
Tg-APP/PS1 mice [1] = test: Aβ plaque deposition in brain tissue, thioflavin S staining; assay type: in vivo, mouse; conditions: 4 times for 2 weeks
Protocol: Accordingly, in order to confirm the effect of treating Alzheimer's disease by intraperitoneal administration of GI210B1, the Tg-APP/PS1 mice administered with GI210B1 (Tg+GI210B1) and the Tg-APP/PS1 mice (Tg+Veh), a control group, were sacrificed, and then the brain tissue was extracted, and Aβ plaques were stained using thioflavin S, and then the degree of Aβ plaque deposition in the parietal cortex, hippocampus, and piriform cortex regions was analyzed.
Specifically, for immunohistochemical analysis using thioflavin S staining, the brain was collected after perfusion for the mouse with 4% paraformaldehyde, and then the brain was further fixed with 4% paraformaldehyde overnight at 4° C. The brain tissue sections were prepared by cutting the fixed brain tissue to a thickness of […] using a vibratome. The prepared brain tissue sections were stained using thioflavin S by a known method. At that time, the stained image was analyzed using MetaMorph Microscopy Automation & Image Analysis software (Molecular device). The amount of plaque was quantified and expressed as the number of plaques per unit area and the sum of the plaque areas.
The Tg-APP/PS1 mice were prepared in the same manner as in Example 1.1 above. The test substance was prepared by diluting GI210B1, GI210B1C1, or GI210B1CN obtained in Preparation Example 1 to 3 in saline. Thereafter, the prepared test substances were each intraperitoneally administered to the 6.5-month-old Tg-APP/PS1 mice at a concentration of 1.2 mg/kg, 0.7778 mg/kg, and 1.1745 mg/kg a total of 4 times for 2 weeks (FIG. 23).
In the same manner as in Example 1.3 above, the mice were sacrificed, and then the brain tissue was extracted, and the degree of Aβ plaque deposition in the parietal cortex, hippocampus, and piriform cortex regions was analyzed using thioflavin S, which stains Aβ plaques.
The Tg-APP/PS1 mice were prepared in the same manner as in Example 1.1 above. The test substance was prepared by diluting GLP-1 (Peptron), GI210B1C1 obtained in Preparation Example 2 and GI212B2 obtained in Preparation Example 4, anakinra (Amgen, Kineret-inj), and the anti-IL-1 antibody (BioXcell, BE0246) in saline to concentrations of 0.0371 mg/kg, 1.1745 mg/kg, 1.8722 mg/kg, 0.2041 mg/kg, and 1.77 mg/kg, respectively. Thereafter, the prepared test substances were intraperitoneally administered to the 6.5-month-old Tg-APP/PS1 mice a total of 4 times for 2 weeks, as shown in Table 6 below (FIG. 30). […]
In the same manner as in Example 1.3 above, the mice from each group were sacrificed, and then the brain tissue was extracted, and the degree of Aβ plaque deposition in the parietal cortex, hippocampus, and piriform cortex regions was analyzed using thioflavin S, which stains Aβ plaques.

Tg-APP/PS1 mice [2] = test: MAP-2 immunofluorescence staining of hippocampal CA1 region; assay type: in vivo, mouse; conditions: 4 times for 2 weeks
From the text: Long-term memory is regulated at synapses between axons of neurons and dendrites of target neurons, and the microstructure of neurons is greatly influenced by the state of neuron health. Changes in the microstructure of dendrites of neurons are important for maintaining memory. The microstructure of the dendrites of such neurons can be observed as an image by staining with an anti-MAP-2 antibody (GeneTex, CatNo. GTX133109) located in the dendrites.
Therefore, in order to determine the mechanism of action of cognitive function improvement and memory recovery effects of GI210B1, the Tg-APP/PS1 mice administered with GI210B1 (Tg+GI210B1), the wild type mice (WT) as a normal group, and the Tg-APP/PS1 mice (Tg or Tg+Veh) as a control group were sacrificed, and then the brain tissue was extracted, and the microstructural status of the dendrites (dendritic process) of the hippocampus was analyzed.
In the same manner as in Example 1.4.1 above, the mice from each group were sacrificed, and then the brain tissue was extracted, and the microstructural status of the dendrites of the hippocampus was analyzed.

[3] = molecular target: T1, IL-1Ra (interleukin-1 receptor alpha) (Homo sapiens, UniProt P14778); test: Binding ability of GI210B1 measured with Octet RED 384 (AR2G biosensor); conditions: IL-1Ra 1 μg/ml coated on biosensor; GI210B1 15.6 nM to 1,000 nM
T1 construct: purchased R&D systems
T1 sequence (P14778 18-569): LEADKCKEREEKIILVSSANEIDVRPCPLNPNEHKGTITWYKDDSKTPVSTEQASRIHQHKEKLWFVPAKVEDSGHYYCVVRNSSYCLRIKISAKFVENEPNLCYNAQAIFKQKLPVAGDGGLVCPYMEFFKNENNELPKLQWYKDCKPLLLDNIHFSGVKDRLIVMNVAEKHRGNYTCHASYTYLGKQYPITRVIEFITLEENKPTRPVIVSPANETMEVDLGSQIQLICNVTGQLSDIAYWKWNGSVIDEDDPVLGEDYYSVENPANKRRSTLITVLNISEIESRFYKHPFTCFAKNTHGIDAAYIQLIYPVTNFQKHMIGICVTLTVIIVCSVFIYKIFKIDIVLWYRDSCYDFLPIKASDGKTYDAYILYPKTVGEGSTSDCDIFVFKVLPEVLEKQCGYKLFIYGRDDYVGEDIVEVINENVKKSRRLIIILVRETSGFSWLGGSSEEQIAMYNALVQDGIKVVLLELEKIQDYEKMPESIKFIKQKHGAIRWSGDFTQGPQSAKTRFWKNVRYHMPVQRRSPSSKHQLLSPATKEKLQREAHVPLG
Protocol: The binding ability of GI210B1, which was obtained through the method of Preparation Example 1 above, to IL-1Ra ([…]) was measured. At that time, the binding ability to IL-1Ra was confirmed using Octet RED 384 (ForteBio). The AR2G (amine reactive 2nd generation) biosensor was used by immersion in 1× kinetic buffer for 10 minutes. IL-1Ra (R&D systems) was prepared at a concentration of 1 μg/ml and coated on the biosensor, and the binding ability was confirmed at each concentration by serially diluting GI210B1 from 15.6 nM to 1,000 nM.

Tg-APP/PS1 mice [4] = test: Ki-67 staining of hippocampal DG region; assay type: in vivo, mouse; conditions: Example 1; GI210B1 1.2 mg/kg intraperitoneal, 4 times for 2 weeks
From the text: Ki-67 is a protein expressed in the nucleus during cell division.
In order to confirm the effect of GI210B1 on the decreased neurogenesis in the DG region of the hippocampus of Tg mice, the Tg-APP/PS1 mice administered with GI210B1 (Tg+GI210B1), the wild type mice (WT) as a normal group, and the Tg-APP/PS1 mice (Tg) as a control group were sacrificed, and then the brain was extracted, and the DG region of the hippocampus was fluorescently stained with Ki-67.

[5] = Example 2, GI210B1, GI210B1C1, GI210B1CN at 1.2, 0.7778, 1.1745 mg/kg intraperitoneal

Ka(Association rate, 1/Ms) [3]: 22000 M⁻¹ s⁻¹
Kd(dissociation rate, 1/s) [3]: 0.0093 s⁻¹
Substance: GI210B1: fusion protein dimer comprising GLP-1 (SEQ ID NO: 2), IgG4 Fc domain and IL-1Ra; SEQ ID NO: 10
amount of plaque deposited in the brain (number of plaques per unit area and sum of plaque areas) (Tg-APP/PS1 mice [1]; Example 1, parietal cortex, hippocampus, piriform cortex, GI210B1 1.2 mg/kg intraperitoneal): tended to be reduced compared to the control group
amount of plaque deposited in the brain (number of plaques per unit area and sum of plaque areas) (Tg-APP/PS1 mice [1]; [5]): statistically significantly reduced compared to the control group (Tg+Veh)
amount of plaque deposited in the brain (number of plaques per unit area and sum of plaque areas) (Tg-APP/PS1 mice [1]; Example 2, GI210B1, GI210B1C1, GI210B1CN at 1.2, 0.7778, 1.1745 mg/kg intraperitoneal, listed as G2101B1): tended to be reduced
expression level of MAP-2 in the CA1 region of the hippocampus (Tg-APP/PS1 mice [2]; Example 1, GI210B1 1.2 mg/kg intraperitoneal): recovered to the level of the normal group (WT)
expression level of MAP-2 in the CA1 region of the hippocampus (Tg-APP/PS1 mice [2]; [5]): higher than that of the control group (Tg+Veh)
number of Ki-67 positive cells in the DG region of the hippocampus (Tg-APP/PS1 mice [4]): increased compared to the Tg-APP/PS1 mice (Tg), which was a level similar to that of the normal group (WT)
